What was measured:
[1] = tested on: Sp1 binding to the −99/−90 segment of the MUC1 promoter; assay: EMSA of Sp1 binding to the MUC1 promoter segment; parameters: species or system human; conditions: A549 nuclear extracts, 100 nM NE 0-120 min
Experimental: Referring now to FIG. 16, NE enhances the binding of Sp1 to the −99/−90 segment in the MUC1 promoter. Confluent A549 cells were treated with vehicle control (A) or 100 nM NE (B) for 0, 10, 20, 30, 60, or 120 min. Cells were lysed and nuclear extracts were incubated with or without 100-fold molar excess of unlabeled probe, poly(dIdC) as a non-specific competitor, or Sp1 antibody for 30 min on ice, and then incubated with a [γ-^32P]-labeled oligonucleotide corresponding to the human MUC1 promoter between nucleotides −104 and −83. DNA-protein complexes were resolved on 4.5% polyacrylamide gels and analyzed by autoradiography.
Electrophoretic mobility shift assay (EMSA). Confluent A549 cells were treated with 100 nM NE for 0, 10, 20, 30, 60, or 120 min. Following treatment, nuclear extracts were prepared as previously described (31). […]
Protein concentrations were measured by the procedure of Bradford (8). […] The DNA-protein complexes were resolved on 4.5% polyacrylamide gels and analyzed by autoradiography as described in Lee et al. 2004, Differential expression of mu-opioid receptor gene in CXBK and B6 mice by Sp1, Mol Pharmacol 66: 1580-1584.

[2] = tested on: MUC1 protein in A549 cells
Experimental: Confluent A549 cells were incubated in the presence or absence of 5.0 μg/ml of actinomycin (AcD) or 10 μg/ml of cycloheximide (Chx) for 1 hr and either non-treated or treated for 24 hr with 100 nM of NE. MUC1 protein levels in cell lysates (A) and spent media (B) were measured by ELISA. Each bar represents the mean±SEM (n=3). […] (C) Aliquots of spent media obtained from confluent A549 cells were non-treated (0 hr) or treated for 24 hr with 100 nM NE or vehicle control and MUC1 levels in the spent media determined by ELISA. Each bar represents the mean±SEM (n=3).
A549 cells were seeded at 5.0×10^4 cells/well in 24-well plates in Dulbecco's Modified Eagle Medium (DMEM) containing 10% fetal bovine serum (FBS), 100 U/ml penicillin, and 100 μg/ml streptomycin (all from Invitrogen, Carlsbad, Calif.) and incubated at 37° C. in a humidified CO2 incubator. Confluent monolayers were washed with serum-free DMEM and treated with 100 nM (2.6 U/ml) NE or vehicle control (PBS) for 24 hr. In some experiments, the cells were pretreated for 1 hr with 5.0 μg/ml of actinomycin D or 10 μg/ml of cycloheximide prior to NE treatment. Following treatment, cell-conditioned media were collected, and the cells were washed with PBS and lysed with 500 μl/well of PBS containing 1.0% Triton X-100, 1.0% sodium deoxycholate, 1.0% protease inhibitor cocktail, and 2.0 mM phenylmethylsulfonyl fluoride (PMSF). Lysates and conditioned media were incubated for 20 min at 80° C. to inactivate residual NE, insoluble material removed by centrifugation at 14,000×g for 10 min at 4° C., and protein concentrations measured by the procedure of Bradford using bovine serum albumin as standard.
ELISA. A549 cell lysates or cell-conditioned culture media were centrifuged at 10,000×g for 10 min at 4° C., added in triplicate to 96-well ELISA plates (MaxiSorb™, Nalge Nunc, Rochester, N.Y.), and incubated overnight at 4° C. Wells were blocked for 1 hr at room temperature (about 22° C.) with PBS, pH 7.0, containing 10 mg/ml BSA and 50 mg/ml sucrose and washed with PBS containing 0.05% Tween 20 (PBS-T). The samples were reacted for 2 hr at room temperature with 200 μg/ml of primary MUC1 antibody (GP1.4), washed with PBS-T, reacted for 2 hr at room temperature with 200 μg/ml of secondary antibody (peroxidase-conjugated goat antimouse IgG) (KPL, Gaithersburg, Md.), and washed with PBS-T. Bound antibodies were detected with tetramethylbenzidine substrate (SureBlue™, KPL), the substrate reaction stopped with 1 N HCl, and absorbencies at 450 nm measured using a microplate spectrophotometer (Dexall, Gaithersburg, Md.).

MUC1 mRNA = assay: Effect of NE on MUC1 mRNA expression and stability in A549 cells (real time RT-PCR); assay type: cell-based, human
Experimental: Referring now to FIG. 11. […] MUC1 mRNA levels were measured by real time RT-PCR and normalized to GAPDH mRNA levels. Each data point represents the mean±SEM (n=3).
Effect of NE on MUC1 mRNA expression. A549 cells were seeded in DMEM plus 10% FBS in 24-well plates at 5.0×10^4 cells/well, cultured to confluence for 24 hr at 37° C., and treated for 24 hr with various concentrations of NE (0, 10, 25, 50, 100, or 150 nM) or vehicle control. […] At the end of each chase period, the cells were washed with PBS and MUC1 transcripts quantified by real time RT-PCR.
Real time RT-PCR. Total RNA was isolated using RNeasy (Qiagen, Valencia, Calif.) and 2.0 μg was reverse transcribed using the iScript cDNA Synthesis kit (BioRad, Hercules, Calif.) in a total volume of 20 μl. Real time PCR was carried out using the Taqman probes and iQ™ Supermix (BioRad) according to the manufacturer's instructions. Briefly, 2.0 μl of cDNA or control plasmid was used as template for amplification in the iCycler (BioRad) with 200 nM of MUC1 or GAPDH (internal control) primers and probes. […] The CT value was defined as the number of PCR cycles required for the specific fluorescence signal to exceed the detection threshold value set by the software installed in the iCycler. […] The levels of MUC1 and GAPDH mRNAs were calculated from the standard curves and the expression of MUC1 transcripts was normalized to GAPDH transcripts.

MUC1 = assay: Degradation of MUC1 in spent medium aliquots by NE (ELISA); assay type: biochemical, human; conditions: spent medium of A549 cells, 100 nM NE, 24 hr
Experimental: To verify the ability of NE to degrade MUC1, aliquots of a spent medium sample containing MUC1 molecules were incubated for 24 hr in the presence of NE and the amounts of MUC1 measured by ELISA.

MUC1 promoter = assay: MUC1 promoter-luciferase reporter assay in A549 cells; conditions: MUC1-pGL2b-transfected A549 cells, 100 nM NE, 24 hr
MUC1 transcription = assay: Trypsin-induced MUC1 transcription compared with NE; assay type: cell-based

Substance | time of maximum Sp1 binding to the MUC1 promoter segment in the presence of NE [1] [min] | MUC1 in spent media compared with the control group ([2]; A549 cells, 100 nM NE 24 hr, with or without AcD or Chx pretreatment) [%] | increase of MUC1 levels in cell lysates compared with 24 hr control ([2]; confluent A549 cells, 100 nM NE, 24 hr) [%] | effect on MUC1 mRNA stability (MUC1 mRNA; 100 nM NE 24 hr, chase with 5.0 μg/ml actinomycin D 0-24 hr) | MUC1 mRNA levels with increasing doses and time (MUC1 mRNA; NE 0-150 nM, real time RT-PCR) | MUC1 remaining in spent medium aliquots after incubation with NE (MUC1) | MUC1 promoter luciferase activity compared with vehicle control (MUC1 promoter) | activity in inducing MUC1 transcription relative to that of NE (MUC1 transcription)
neutrophil elastase | 60 | 45 | 33 | does not alter MUC1 mRNA stability | progressively higher MUC1 mRNA levels | no detectable amounts of MUC1 | significantly higher luciferase activity | –
Trypsin | – | – | – | – | – | – | – | less than 10%
